Several values for one entry are separate records, joined by “and”; a condition that tells them apart may be missing. Equal entries are not always repeated.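 A five-concentration, 48-hour dose response in 96-well plates underlies each endpoint, interpolated linearly between surrounding concentrations. GI50 = concentration required for 50% inhibition of growth. TGI: total growth inhibition.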
Tests used:
Test in all cases: NCI tumour cell line growth inhibition, 48 h
M19-MEL melanoma = system: M19-MEL melanoma
RPMI-8226 leukemia = system: RPMI-8226 leukemia
KM20L2 colon = system: KM20L2 colon
RXF 393 renal = system: RXF 393 renal
SNB-78 CNS = system: SNB-78 CNS
SNB-19 CNS = system: SNB-19 CNS
MOLT-4 leukemia = system: MOLT-4 leukemia
HT29 colon = system: HT29 colon
SR leukemia = system: SR leukemia
T-47D breast = system: T-47D breast
DMS 114 small cell lung = system: DMS 114 small cell lung
M14 melanoma = system: M14 melanoma

SMILES | TGI (M19-MEL melanoma) [nM] | GI50 (RPMI-8226 leukemia) [nM] | TGI (RPMI-8226 leukemia) | TGI (KM20L2 colon) [nM] | GI50 (RXF 393 renal) [nM] | TGI (RXF 393 renal) | TGI (SNB-78 CNS) [nM] | GI50 (SNB-19 CNS) [nM] | TGI (SNB-19 CNS) | GI50 (MOLT-4 leukemia) [nM] | TGI (MOLT-4 leukemia) | GI50 (HT29 colon) [nM] | TGI (HT29 colon) | GI50 (SR leukemia) [nM] | GI50 (T-47D breast) [nM] | TGI (T-47D breast) [nM] | TGI (DMS 114 small cell lung) [nM] | GI50 (M14 melanoma) [nM] | TGI (M14 melanoma) | TGI (SR leukemia) [nM]
C[C@@H]1C[C@@H]([C@H](O)CC2CC(=O)NC(=O)C2)C(=O)[C@@H](C)C1 | 3480 | 451 | 3020 nM and 494 nM | 21500 | 135 | 1480 nM and 462 nM | 11100 | 282 | 15800 nM and > 94600 nM | 139 | 2060 nM and 518 nM | 272 | 1970 nM and 2400 nM | 280 | 231 | 5070 | 1790 | 248 | 2800 nM and 1600 nM | 
N#C/C(=C\c1ccc2[nH]ccc2c1)C(=O)NCCCCNC(=O)/C(C#N)=C/c1ccc2[nH]ccc2c1 | > 100000 |  | > 10000 nM | > 100000 |  | > 10000 nM | > 100000 |  | > 31600 nM |  | > 31600 nM |  | > 31600 nM |  |  | > 10000 | > 100000 |  | > 31600 nM | > 31600
